Measurements published in patent US8524659B2, “RNA virus-derived peptides with modified side chains” (National Taiwan University, priority 2011, dated 2013).

Key:
Jurkat cells = assay: MTT assay for determining cell survival; assay type: cell-based; conditions: 7 μM and 30 μM peptide, 4 hours, 37° C., FIG. 4
Description: The cells were grown to appropriate cell density (roughly 2×10^6 cells/mL) and transferred into new media one day before performing the experiment. For each assay, 8×10^5 cells as determined by a hemocytometer were added into an eppendorf. The cells were centrifuged at 2200 rpm for 5 minutes. The supernatant was removed by suction. Then 200 μL of 7 μM or 30 μM XaaTat peptide was added. The cells were incubated for 4 hours at 37° C. and then centrifuged at 2200 rpm for 5 minutes. The cells were washed with RPMI medium twice, and then 200 μL of 0.5 mg/mL MTT in serum free RPMI buffer was added and incubated at 37° C. for 3.5 hours. The cells were then centrifuged at 4000 rpm for 5 minutes. The supernatant was then transferred to two wells (100 μL each) of a 96-well plate. Then 400 μL DMSO was added to the cells in the assaying eppendorf. The eppendorf was then vortexed for 5 minutes to solubilize the MTT purple crystals, and centrifuged at 2200 rpm for 5 minutes. Then the supernatant was transferred to 4 wells (100 μL each) of the 96-well plate for analysis. The absorbance at 570 was determined for each well using a microplate reader with the absorbance at 655 nm used for background correction. A standard curve was generated using different number of cells (8×10^5, 4×10^5 and 2×10^5). The absorbance for each sample for each peptide at each concentration was then correlated to the number of live cells based on the standard curve.

HIV TAR RNA [1] = assay: Fluorescence anisotropy binding of Tat peptides to fluorescein-labeled TAR RNA
Description: The binding affinity of XaaTat peptides (Xaa=Agh, Arg and Agb) for TAR RNA was measured by fluorescence anisotropy using a Varian Cary Eclipse fluorescence spectrophotometer. The anisotropy (r) was calculated using the following equation: […]
where Ivv, Ivh, Ihh, Ihv are the fluorescence intensities with the excitation polarizer and emission polarizer is oriented perpendicular (Ivh and Ihv) and parallel (Ivv and Ihh) to the direction of the polarized excitation. The fluorescein-labeled TAR RNA (F-TAR-RNA) was excited at 490 nm and the polarized emissions were monitored at 512 nm. The slits were set at 10 nm for both excitation and emission. The integration time was 20 seconds. All data were measured in a Sub-Micro (Starna Cell, Inc.) with a starting volume of 160 μL. Each addition (1 μL) of XaaTat was equilibrated for two minutes before the fluorescence signal was recorded. All experiments were performed at room temperature in TKT buffer (TKT: 50 mM Tris-HCl, pH 7.4, 20 mM KCl and 0.02% Tween20). The initial concentration of F-TAR-RNA was 25 nM. The TKT solution and peptide stock solution were both equilibrated at room temperature more than 20 minutes before the experiment. The experiment was repeated three times independently. For every single point, three measurements were performed and the average value was used for deriving the apparent (apparent KD). The apparent for the peptide-RNA complex was derived by fitting the data assuming a 1:1 peptide-RNA stoichiometry. The fitting was performed using Kaleidagraph 3.52. (Synergy Software, CA).

HIV TAR RNA [2] = assay: Gel shift assay (EMSA) with fluorescein-labeled TAR RNA in the presence of poly(dI-dC); assay type: binding
Description: The fluorescein-labeled TAR RNA (F-TAR-RNA) was purchased from Sigma. F-TAR-RNA was dissolved in diethyl pyrocarbonate treated H2O to give a 50 μM solution. Binding assays were performed at room temperature. Peptide and RNA were incubated in pH 7.4 buffer (10 μL) containing Tris-HCl (50 mM), KCl (50 mM), poly-dIdC (10 μg/mL), 2% glycerol, and Triton X-100 (0.05%). The F-TAR-RNA concentration was 100 nM. The samples were analyzed by loading into 12% native polyacrylamide gels in […] and electrophoresis was performed with 140 V at room temperature. Dried gels were scanned by the Typhoon TRIO+ Variable Mode Imager. Bands corresponding to the free and bound RNA were quantified using ImageQuant software. The apparent dissociation constants were globally derived from the quantified data assuming a 1:1 binding stoichiometry.

SMILES	Cytotoxicity (cell survival) (Jurkat cells)	Kd (HIV TAR RNA [1]; Table 2, read-out: KD, binding affinity of Tat-peptide and TAR RNA by fluorescence anisotropy assay) [nM]	Kd (HIV TAR RNA [1]; fluorescence anisotropy, 25 nM fluorescein-labeled HIV TAR RNA, absence of poly(dI-dC), 1:1 stoichiometry, read-out: Apparent KD HIV TAR RNA) [nM]	Kd (HIV TAR RNA [2]; EMSA, 100 nM fluorescein-labeled HIV TAR RNA, 10 μg/mL poly(dI-dC), 1:1 stoichiometry, read-out: Apparent KD HIV TAR RNA with poly(dI-dC)) [nM]	Effect of poly(dI-dC) on binding affinity for TAR RNA (specificity) (HIV TAR RNA [2]; comparison of absence and presence of poly(dI-dC), Table 1)	Kd (HIV TAR RNA [2]; in the presence of 10 μg/mL poly(dI-dC), FIG. 9, read-out: KD of peptide and TAR-RNA by gel shift assay) [nM]	Kd (HIV TAR RNA [2]; in the presence of poly(dI-dC) at 25° C., Table 3, read-out: KD, dissociation constant of Tat-peptide and TAR RNA by gel shift assay) [nM]
CC(=O)N[C@@H](Cc1ccc(O)cc1)C(=O)NCC(=O)N[C@@H](CCCCNC(=N)N)C(=O)N[C@@H](CCCCN)C(=O)N[C@@H](CCCCN)C(=O)N[C@@H](CCCCNC(=N)N)C(=O)N[C@@H](CCCCNC(=N)N)C(=O)N[C@@H](CCC(N)=O)C(=O)N[C@@H](CCCCNC(=N)N)C(=O)N[C@@H](CCCCNC(=N)N)C(=O)N[C@@H](CCCCNC(=N)N)C(N)=O [AghTat, Ac-Tyr-Gly-Agh-Lys-Lys-Agh-Agh-Gln-Agh-Agh-Agh-NH2]	minimal cytotoxicity	–	–	–	–	–	–
CC(=O)N[C@@H](Cc1ccc(O)cc1)C(=O)NCC(=O)N[C@@H](CCCNC(=N)N)C(=O)N[C@@H](CCCCN)C(=O)N[C@@H](CCCCN)C(=O)N[C@@H](CCCNC(=N)N)C(=O)N[C@@H](CCCNC(=N)N)C(=O)N[C@@H](CCC(N)=O)C(=O)N[C@@H](CCCNC(=N)N)C(=O)N[C@@H](CCCNC(=N)N)C(=O)N[C@@H](CCCNC(=N)N)C(N)=O [ArgTat, Ac-Tyr-Gly-Arg-Lys-Lys-Arg-Arg-Gln-Arg-Arg-Arg-NH2, reference compound]	minimal cytotoxicity	25 ± 3	25 ± 3	67 ± 19	somewhat affected	67 ± 19	67 ± 19
